Our source for the Km values is article PMC9806890, “Purification and biochemical characterization of two laccase isoenzymes isolated from Trichoderma harzianum S7113 and its application for bisphenol A degradation” (Microbial Cell Factories, 2023).

In one assay the test system is T1, Lac A (LacA).
T1 construct: 63 kDa by SDS-PAGE
In words: absorbance at […] nm, Lineweaver-Burk. Format: biochemical, Trichoderma harzianum. The following applies: 0.1 M sodium citrate, pH 4.5; ABTS 0.025-0.4 mM; O2 co-substrate.

The next assay concerns T2, Lac B (LacB).
T2 construct: 48 kDa by SDS-PAGE
In words: absorbance at […] nm, Lineweaver-Burk. The following applies: 0.1 M sodium citrate, pH 4.5; ABTS 0.025-0.4 mM; O2 co-substrate. Format: biochemical, Trichoderma harzianum.

As usually defined, the Km is the substrate concentration at which the rate is half of its maximum. Turning to `CCn1c(=NN=c2sc3cc(S(=O)(=O)O)ccc3n2CC)sc2cc(S(=O)(=O)O)ccc21` [ABTS, 2,2ʹ-Azinobis-(3-ethylbenzothiazoline-6-sulfonic acid)], the Km in the assay on Lac A (LacA) stood at 100 µM; with Lac B (LacB), 64 µM.
